In ChEMBL document CHEMBL5236589, “Design and Structural Optimization of Orally Bioavailable SOS1 Inhibitors for the Treatment of KRAS-Driven Carcinoma” (J Med Chem, 2022):

Key:
[1] = Inhibition of SOS1/KRAS G13D mutant protein-protein interaction in human DLD-1 cells assessed as ERK1/2 phosphorylation measured after 1 hr by homogeneous time-resolved fluorescence (HTRF) method; format: cell-based; conditions: DLD-1, 1 h
[2] = Half life in ICR mouse at 20 mg/kg, po by LC-MS/MS analysis; format: ADME, organism-based; conditions: in vivo; for half-life: ICR; for t1/2: po, 20 mg/kg
[3] = Tmax in ICR mouse at 20 mg/kg, po by LC-MS/MS analysis; format: ADME, organism-based; conditions: in vivo
[4] = Cmax in ICR mouse at 20 mg/kg, po by LC-MS/MS analysis; format: ADME, organism-based; design: dose 20 mg/kg, route po; conditions: in vivo
[5] = AUC in ICR mouse at 20 mg/kg, po by LC-MS/MS analysis; format: ADME, organism-based; design: dose 20 mg/kg, route po; conditions: in vivo
[6] = MRT in ICR mouse at 20 mg/kg, po by LC-MS/MS analysis; format: ADME, organism-based; conditions: in vivo
[7] = Elimination rate constant in ICR mouse at 20 mg/kg, po by LC-MS/MS analysis; format: ADME, organism-based; conditions: in vivo; for k el: ICR; for Kel: po, 20 mg/kg
SOS1-KRAS = SOS1-KRAS (Homo sapiens, UniProt Q07889); assay: Inhibition of human recombinant SOS1 (residue 564-1049)/KRAS G12C mutant protein-protein interaction at incubated for 25 degC for 60 mins by homogeneous time-resolved fluorescence (HTRF) method
Sequence of SOS1-KRAS (Q07889 whole entry, looked up, stated change not applied): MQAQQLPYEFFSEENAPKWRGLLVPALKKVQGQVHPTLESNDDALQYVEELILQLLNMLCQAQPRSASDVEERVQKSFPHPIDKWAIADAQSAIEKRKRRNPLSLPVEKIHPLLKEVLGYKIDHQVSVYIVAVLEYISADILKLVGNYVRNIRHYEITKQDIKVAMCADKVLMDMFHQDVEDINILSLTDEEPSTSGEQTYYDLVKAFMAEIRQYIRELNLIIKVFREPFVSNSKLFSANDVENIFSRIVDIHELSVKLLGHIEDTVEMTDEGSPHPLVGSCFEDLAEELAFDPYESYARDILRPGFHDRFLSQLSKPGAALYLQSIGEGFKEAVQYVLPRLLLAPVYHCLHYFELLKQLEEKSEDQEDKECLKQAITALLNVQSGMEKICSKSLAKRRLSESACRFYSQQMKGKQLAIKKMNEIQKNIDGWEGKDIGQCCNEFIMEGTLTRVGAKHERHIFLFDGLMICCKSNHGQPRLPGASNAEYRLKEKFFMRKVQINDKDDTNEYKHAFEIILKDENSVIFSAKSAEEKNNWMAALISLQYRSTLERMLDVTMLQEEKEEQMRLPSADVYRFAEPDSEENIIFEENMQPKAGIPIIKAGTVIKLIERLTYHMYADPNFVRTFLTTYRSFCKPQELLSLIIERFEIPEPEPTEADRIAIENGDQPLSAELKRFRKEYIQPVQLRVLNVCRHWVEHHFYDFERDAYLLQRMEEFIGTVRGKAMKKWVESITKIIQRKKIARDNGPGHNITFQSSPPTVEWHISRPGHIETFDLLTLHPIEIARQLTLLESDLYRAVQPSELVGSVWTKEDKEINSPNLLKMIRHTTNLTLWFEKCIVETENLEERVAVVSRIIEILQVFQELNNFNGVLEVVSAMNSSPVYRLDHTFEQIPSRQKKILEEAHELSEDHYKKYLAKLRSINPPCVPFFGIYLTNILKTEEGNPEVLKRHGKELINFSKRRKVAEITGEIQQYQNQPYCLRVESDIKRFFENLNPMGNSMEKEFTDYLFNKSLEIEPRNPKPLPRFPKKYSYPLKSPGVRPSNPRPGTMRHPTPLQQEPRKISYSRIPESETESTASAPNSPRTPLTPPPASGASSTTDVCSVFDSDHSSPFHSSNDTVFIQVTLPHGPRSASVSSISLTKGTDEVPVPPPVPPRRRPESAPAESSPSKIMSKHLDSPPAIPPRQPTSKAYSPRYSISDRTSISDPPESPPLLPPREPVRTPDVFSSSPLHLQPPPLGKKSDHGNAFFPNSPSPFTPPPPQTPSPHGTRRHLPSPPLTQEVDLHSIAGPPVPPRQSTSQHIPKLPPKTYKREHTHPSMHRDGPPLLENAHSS

[8] = Toxicity in BALB/c mouse xenografted with human MIA PaCa-2 cells harboring KRAS G12C mutant assessed as change in body weight at 50 mg/kg, po once a day measured for 16 days; format: organism-based; conditions: in vivo, 384 h, time 16 day
MIA PaCa-2 = assay: In vivo antitumor activity against human MIA PaCa-2 cells harboring KRAS G12C mutant xenografted in BALB/c mouse assessed as reduction in tumor volume at 50 mg/kg, po once a day measured for 16 days relative to control; format: functional; design: scale not given: the % may be the effect or the level left; conditions: time 16 day
[9] = Toxicity in BALB/c mouse xenografted with human MIA PaCa-2 cells harboring KRAS G12C mutant assessed as mortality at 50 mg/kg, po once a day measured for 16 days; format: organism-based; conditions: in vivo, 384 h, time 16 day

Row | Structure (SMILES) | IC50 [1] | Tmax [3] | Cmax [4] | AUC [5] | MRT [6] | further results
1 | Cc1nc(N[C@H](C)c2cccc(C(F)F)c2F)c2cc3c(cc2n1)OC[C@H]1CN(C(=O)N(C)C)CCN31 | 2.9 nM | 3 h | 621 ng/mL | 3980 ng·h/mL | 4.2 h | half-life [2]: 12.3 h; k el [7]: 2.5e-05 s⁻¹
2 | COCC1(C(=O)N2CCN3c4cc5c(N[C@H](C)c6cccc(C(F)F)c6F)nc(C)nc5cc4OC[C@H]3C2)CC1 | 0.9 nM | 0.25 h | 161 ng/mL | 398 ng·h/mL | 2.62 h | half-life [2]: 2.28 h; k el [7]: 8.33e-05 s⁻¹
3 | Cc1nc(N[C@H](C)c2cc(N)cc(C(F)(F)F)c2)c2cc3c(cc2n1)OC[C@H]1COCCN31 | 38 nM |  |  |  |  | IC50 (SOS1-KRAS): 6 nM
4 | Cc1nc(N[C@H](C)c2cccc(C(F)F)c2F)c2cc3c(cc2n1)OC[C@H]1CN(C(=O)C2CCOCC2)CCN31 | 18 nM | 0.91 h | 241 ng/mL | 646 ng·h/mL | 2.46 h | half-life [2]: 2.13 h; k el [7]: 9.44e-05 s⁻¹
5 | Cc1nc(N[C@H](C)c2cccc(C(F)F)c2F)c2cc3c(cc2n1)OC[C@H]1CN(C(=O)NC2CC2)CCN31 | 8 nM | 6 h | 557 ng/mL | 3490 ng·h/mL | 4.36 h | Activity [8]: Non-Toxic; Activity (MIA PaCa-2): 47%; Activity [9]: Non-Toxic; t1/2 [2]: 12.6 h; Kel [7]: 0.14 h⁻¹
6 | Cc1nc(N[C@H](C)c2cccc(C(F)F)c2F)c2cc3c(cc2n1)OC[C@H]1CN(C(=O)c2ccnn2C)CCN31 | 691 nM |  |  |  |  | 
7 | Cc1nc(N[C@H](C)c2cccc(C(F)F)c2F)c2cc3c(cc2n1)OC[C@H]1CN(C(=O)N2CCN(C)CC2)CCN31 | 99 nM |  |  |  |  | 
8 | Cc1nc(N[C@H](C)c2cccc(C(F)F)c2F)c2cc3c(cc2n1)OC[C@H]1CN(C(=O)[C@@H]2C[C@@H]2F)CCN31 | 22 nM |  |  |  |  | 
9 | Cc1nc(N[C@H](C)c2cccc(C(F)F)c2F)c2cc3c(cc2n1)OC[C@H]1CN(C(=O)C(C)(C)C)CCN31 | 25 nM |  |  |  |  | 
10 | Cc1nc(N[C@H](C)c2cccc(C(F)F)c2F)c2cc3c(cc2n1)OC[C@H]1CN(c2ncc(F)cn2)CCN31 | 99 nM |  |  |  |  | 
11 | Cc1nc(N[C@H](C)c2cccc(C(F)F)c2F)c2cc3c(cc2n1)OC[C@H]1CN(C(=O)C2COC2)CCN31 | 25 nM | 3 h | 260 ng/mL | 2010 ng·h/mL | 4.58 h | half-life [2]: 3.73 h; k el [7]: 5e-05 s⁻¹
12 | CC(=O)N1CCN2c3cc4c(N[C@H](C)c5cc(N)cc(C(F)(F)F)c5)nc(C)nc4cc3OC[C@@H]2C1 | 48 nM |  |  |  |  | IC50 (SOS1-KRAS): 12.8 nM
13 | Cc1nc(N[C@H](C)c2cccc(C(F)F)c2F)c2cc3c(cc2n1)OC[C@H]1CN(C(=O)C2(C#N)CC2)CCN31 | 14 nM | 1.33 h | 600 ng/mL | 4460 ng·h/mL | 4.43 h | half-life [2]: 3.87 h; k el [7]: 5e-05 s⁻¹
14 | CC(=O)N1CCN2c3cc4c(N[C@H](C)c5cccc(C(F)F)c5F)nc(C)nc4cc3OCC2C1 (stereo partly drawn) | 19 nM |  |  |  |  | IC50 (SOS1-KRAS): 8.8 nM
15 | CNC(=O)N1CCN2c3cc4c(N[C@H](C)c5cccc(C(F)F)c5F)nc(C)nc4cc3OC[C@H]2C1 | 15 nM | 8 h | 751 ng/mL | 2830 ng·h/mL | 5.62 h | t1/2 [2]: 14.5 h; Kel [7]: 0.26 h⁻¹
16 | CC(=O)N1CCOc2cc3nc(C)nc(N[C@H](C)c4cc(N)cc(C(F)(F)F)c4)c3cc21 | 780 nM |  |  |  |  | IC50 (SOS1-KRAS): 122 nM
17 | COCCN1CCN2c3cc4c(N[C@H](C)c5cccc(C(F)F)c5F)nc(C)nc4cc3OC[C@H]2C1 | 97 nM |  |  |  |  | 
18 | Cc1nc(N[C@H](C)c2cccc(C(F)F)c2F)c2cc3c(cc2n1)OC[C@H]1CN(CC(=O)N(C)C)CCN31 | 295 nM |  |  |  |  | 
19 | CCNC(=O)N1CCN2c3cc4c(N[C@H](C)c5cccc(C(F)F)c5F)nc(C)nc4cc3OC[C@H]2C1 | 32 nM |  |  |  |  | 
20 | Cc1nc(N[C@H](C)c2cccc(C(F)F)c2F)c2cc3c(cc2n1)OC[C@H]1CN(C(=O)C2CCN(C)CC2)CCN31 | 98 nM |  |  |  |  | 
21 | Cc1nc(N[C@H](C)c2cc(N)cc(C(F)(F)F)c2)c2cc3c(cc2n1)OC[C@H]1CN(C)CCN31 | 11 nM |  |  |  |  | IC50 (SOS1-KRAS): 7.3 nM
22 | COCC(=O)N1CCN2c3cc4c(N[C@H](C)c5cccc(C(F)F)c5F)nc(C)nc4cc3OC[C@H]2C1 | 10 nM | 0.83 h | 180 ng/mL | 860 ng·h/mL | 3.43 h | half-life [2]: 5.86 h; k el [7]: 3.06e-05 s⁻¹
